Activity calls are given as the source filed them. No cut-off for these calls is given here.
How the values were obtained:
B16-F10 [1] = assay: Antitumour activity against mouse B16-F10 cells allografted in C57BL/6 mouse model assessed as increase in acetylated alpha tubulin expression level in tumor at 50 mg/kg, ip measured after 14 days by […] based microscopic analysis (Rvb =1.77%); format: functional; details: time 14 day
B16-F10 [2] = assay: Antitumor activity against mouse B16-F10 cells allografted in C57BL/6 mouse assessed as tumor growth inhibition at 10 mg/kg, ip administered daily for 14 days by caliper method (Rvb= 63%); format: functional; details: 336 h, time 14 day, read-out: TGI
[3] = Tmax in Sprague-Dawley rat at 2 mg/kg, iv measured upto 48 hrs by LC-MS/MS analysis; format: ADME, organism-based; details: in vivo
[4] = Resistance index, ratio of IC50 for antiproliferative activity against human YCC3/7 cells to IC50 for antiproliferative activity against human YCC-11 cells; format: functional
[5] = AUC (0 to infinity) in Sprague-Dawley rat at 2 mg/kg, iv measured upto 48 hrs by LC-MS/MS analysis; format: ADME, organism-based; design: route intravenous, dose 2 mg/kg, time <=48; details: in vivo
B16-F10 [6] = assay: Antitumour activity against mouse B16-F10 cells allografted in C57BL/6 mouse model assessed as decrease in PD-L1 expression level by Western blot analysis relative to control; format: functional; design: scale not given: the % may be the effect or the level left
B16-F10 [7] = assay: Antitumor activity in mouse B16-F10 cells allografted in C57BL/6 mouse assessed as tumor growth inhibition at 50 mg/kg, ip administered for 14 days in presence of 2-(5-chloro-2-(3-cyanobenzyloxy)-4-((2-methylbiphenyl-3-yl)methoxy)benzylamino)-2-methylpropanoic acid by caliper method (Rvb= 63%); format: functional; details: 336 h, time 14 day, read-out: TGI
[8] = Tmax in Sprague-Dawley rat at 10 mg/kg, po measured upto 48 hrs by LC-MS/MS analysis; format: ADME, organism-based; details: in vivo
[9] = Cmax in Sprague-Dawley rat at 2 mg/kg, iv measured upto 48 hrs by LC-MS/MS analysis; format: ADME, organism-based; design: route intravenous, dose 2 mg/kg, time <=48; details: in vivo
B16-F10 [10] = assay: Antitumour activity against mouse B16-F10 cells allografted in C57BL/6 mouse model assessed as increase in CD3 positive/CD8 positive cells in tumor at 50 mg/kg, ip administered for 14 days by flow cytometry analysis (Rvb= 6.65%); format: functional; details: time 14 day
[11] = Toxicity in C57BL/6 mouse allografted with B16-F10 cells assessed as body weight loss at 50 mg/kg, ip administered daily for 14 days; format: organism-based; details: in vivo, 336 h, time 14 day
[12] = Apparent volume of distribution in Sprague-Dawley rat at 2 mg/kg, iv measured upto 48 hrs by LC-MS/MS analysis; format: ADME, organism-based; details: in vivo
[13] = Cardiotoxicity in C57BL/6 mouse at 50 mg/kg, IG administered once daily via gavage for 14 days by ECG analysis; format: toxicity, organism-based; details: in vivo, po, 336 h, time 14 day
B16-F10 [14] = assay: Induction of cell cycle arrest in mouse B16-F10 cells assessed as decrease in cells at G1 phase at 0.1 to 1 uM incubated for 48 hrs by RNase/PI staining based flow cytometry analysis; format: functional; details: dose 0.1-1 µM

| Compound | Activity (B16-F10 [1]) [%] | inhibition in vivo at 10 mg/kg (B16-F10 [2]) [%] | Tmax [3] [min] | Ratio IC50 [4] | AUC(0-inf) [5] [ng·h/mL] | Activity (B16-F10 [6]) [%] | inhibition in vivo at 50 mg/kg (B16-F10 [7]) [%] | Tmax [8] [h] | Cmax [9] [ng/mL] | Activity (B16-F10 [10]) [%] | Activity [11] | Vz/F [12] [L/kg] | Activity [13] | Activity (B16-F10 [14]) |
| --- | --- | --- | --- | --- | --- | --- | --- | --- | --- | --- | --- | --- | --- | --- |
| COc1ccc(-c2ncc(C(=O)NCCCCCCC(=O)NO)s2)c(OC)c1 | 43.6 | 69 | 4.98 | 1.2 | 319 | 20 | 58 | 5.3 | 875 | 6.81 | Non-Toxic | 76.5 | Non-Toxic | – |
| COc1ccc(-c2ncc(C(=O)NCCCCCCC(=O)NO)[nH]2)c(OC)c1 | – | – | – | – | – | – | – | – | – | – | – | – | – | Active |

Source: ChEMBL document CHEMBL5042524, “Discovery of Novel Histone Deacetylase 6 (HDAC6) Inhibitors with Enhanced Antitumor Immunity of Anti-PD-L1 Immunotherapy in Melanoma” (J Med Chem, 2022)
